Data taken from BindingDB's records for doi:10.1016/j.bmcl.2003.08.056 (Merck Research Laboratories, 2003).

What was measured:
[1] = target: T1, cGMP-inhibited 3',5'-cyclic phosphodiesterase 3B [387-1112] (Homo sapiens, UniProt Q13370); assay: PDE SPA Enzyme Inhibition Assay
T1 construct: 387-1112
Procedure: (§1) PDE activity was monitored by measuring the hydrolysis of [3H]-cAMP to [3H]-AMP using scintillation proximity assay (SPA). [3H]-AMP was captured by the SPA beads, and quantified on a TopCount plate reader. Data was analyzed in Graph Pad Prism software.

[2] = target: T2, cGMP-inhibited 3',5'-cyclic phosphodiesterase 3A [388-1112] (Homo sapiens, UniProt Q14432); assay: PDE SPA Enzyme Inhibition Assay
T2 construct: 388-1112
T2 sequence (Q14432 388-1112): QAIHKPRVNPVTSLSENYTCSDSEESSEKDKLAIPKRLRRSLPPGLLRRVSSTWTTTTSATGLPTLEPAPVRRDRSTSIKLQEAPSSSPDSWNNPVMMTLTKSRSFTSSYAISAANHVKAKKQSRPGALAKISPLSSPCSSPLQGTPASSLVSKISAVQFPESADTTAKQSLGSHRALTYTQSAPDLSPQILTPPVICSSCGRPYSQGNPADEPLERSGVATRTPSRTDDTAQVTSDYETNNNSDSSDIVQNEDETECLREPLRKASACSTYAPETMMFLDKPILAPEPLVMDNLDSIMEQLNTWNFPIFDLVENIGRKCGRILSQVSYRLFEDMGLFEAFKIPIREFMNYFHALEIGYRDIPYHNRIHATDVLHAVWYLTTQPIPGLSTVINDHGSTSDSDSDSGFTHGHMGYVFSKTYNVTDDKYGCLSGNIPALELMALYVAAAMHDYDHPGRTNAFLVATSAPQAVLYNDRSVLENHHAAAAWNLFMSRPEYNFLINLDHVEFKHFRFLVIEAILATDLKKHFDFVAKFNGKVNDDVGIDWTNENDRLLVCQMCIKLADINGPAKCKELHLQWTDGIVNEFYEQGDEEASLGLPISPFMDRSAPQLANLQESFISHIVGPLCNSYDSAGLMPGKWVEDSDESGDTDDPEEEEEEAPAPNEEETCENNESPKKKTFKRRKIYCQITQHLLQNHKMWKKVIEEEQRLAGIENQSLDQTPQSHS
Procedure: as §1

T1 sequence (Q13370 387-1112): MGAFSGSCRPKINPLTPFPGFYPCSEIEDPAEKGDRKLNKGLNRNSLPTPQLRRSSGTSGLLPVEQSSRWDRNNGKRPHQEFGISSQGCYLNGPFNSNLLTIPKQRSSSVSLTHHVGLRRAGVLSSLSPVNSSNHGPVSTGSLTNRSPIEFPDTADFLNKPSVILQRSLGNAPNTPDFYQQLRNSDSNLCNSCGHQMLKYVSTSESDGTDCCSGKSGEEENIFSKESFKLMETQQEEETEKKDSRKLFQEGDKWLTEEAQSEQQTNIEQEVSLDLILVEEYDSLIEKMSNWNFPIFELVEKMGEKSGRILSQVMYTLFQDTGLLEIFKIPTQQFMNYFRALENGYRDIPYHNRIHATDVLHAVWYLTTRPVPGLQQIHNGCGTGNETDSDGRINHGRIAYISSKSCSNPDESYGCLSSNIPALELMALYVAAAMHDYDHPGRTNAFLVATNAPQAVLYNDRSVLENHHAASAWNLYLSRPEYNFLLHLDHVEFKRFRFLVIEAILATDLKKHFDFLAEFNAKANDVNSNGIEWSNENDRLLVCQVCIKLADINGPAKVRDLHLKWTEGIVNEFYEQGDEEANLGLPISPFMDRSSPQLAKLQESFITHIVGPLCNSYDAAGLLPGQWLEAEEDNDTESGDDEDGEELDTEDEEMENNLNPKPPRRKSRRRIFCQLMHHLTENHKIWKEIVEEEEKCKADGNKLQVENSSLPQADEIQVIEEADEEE

| Compound | IC50 [1] [nM] | IC50 [2] [nM] | IC50 ([1]; pH 7.5, 22 °C) [nM] |
| --- | --- | --- | --- |
| CC1(C)C(=O)NN=C1c1ccc(NC2=C(Cc3cccc(C#N)c3)C(=O)CCC2)c(F)c1F [3-[(2-{[4-(4,4-dimethyl-5-oxo-4,5-dihydro-1H-pyrazol-3-yl)-2,3-difluorophenyl]amino}-6-oxocyclohex-1-en-1-yl)methyl]benzonitrile] | 0.33 | 7.6 | – |
| Cc1cc(C2=NNC(=O)CC2C)ccc1NC1=C(Cc2ccccc2)C(=O)CCC1 (stereo not given) [6-{4-[(2-benzyl-3-oxocyclohex-1-en-1-yl)amino]-3-methylphenyl}-5-methyl-2,3,4,5-tetrahydropyridazin-3-one] | 0.61 | 3.7 | – |

Compounds with a lower IC50 [2], results first:

| IC50 [1] [nM] | IC50 [2] [nM] | IC50 ([1]; pH 7.5, 22 °C) [nM] | Compound |
| --- | --- | --- | --- |
| 0.26 | 1.2 | – | CC1CC(=O)NN=C1c1ccc(NC2=C(Cc3ccccc3)C(=O)CCC2)c(F)c1 (stereo not given) [6-{4-[(2-benzyl-3-oxocyclohex-1-en-1-yl)amino]-3-fluorophenyl}-5-methyl-2,3,4,5-tetrahydropyridazin-3-one] |
| – | 0.11 | 0.049 | C[C@@H]1CC(=O)NN=C1c1ccc(NC2=C(Cc3cccc(-c4cccc([N+](=O)[O-])c4)c3)C(=O)CCC2)cc1 [(5R)-5-methyl-6-{4-[(2-{[3-(3-nitrophenyl)phenyl]methyl}-3-oxocyclohex-1-en-1-yl)amino]phenyl}-2,3,4,5-tetrahydropyridazin-3-one] |
| – | 0.11 | 0.068 | C[C@@H]1CC(=O)NN=C1c1ccc(NC2=C(Cc3cccc(-c4ccsc4)c3)C(=O)CCC2)cc1 [(5R)-5-methyl-6-{4-[(3-oxo-2-{[3-(thiophen-3-yl)phenyl]methyl}cyclohex-1-en-1-yl)amino]phenyl}-2,3,4,5-tetrahydropyridazin-3-one] |
